The target in this assay is T1, human BRD4 bromodomain II (Homo sapiens, UniProt O60885).
T1 construct: human BRD4 bromodomain II [based on Genbank NM_058243, residues 349-460]; host or cells: E. coli
Put plainly: Bromodomain binding assay (AlphaScreen), BRD4 BDII. The conditions noted are these: AlphaScreen assay, Table C2; read-out: BRD4 BDII IC50. Put shortly: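 Read-out is AlphaScreen signal (ex 680 nm, em 520-620 nm) from streptavidin donor beads on a biotinylated acetylated histone H4 (aa 1-21) peptide and nickel acceptor beads on the His6-tagged bromodomain. IC50 values come from curve fits of percentage peptide binding against compound concentration.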

The values that follow come from patent US20250179059A1 (The Regents of the University of California, priority 2021, published 2025).

As a reminder, the IC50 is the concentration that gives 50% inhibition.

With `CC(=O)Nc1ccc(-c2cccc(-c3ccc(F)cc3)c2O)cc1F` [Example 59, N-(3,4″-Difluoro-2′-hydroxy-[1,1′:3′,1″-terphenyl]-4-yl)acetamide], the IC50 is above 100 nM.
Turning to `CC(=O)Nc1ccc(-c2cc(F)cc(-c3cnn(C4CCN(C)CC4)c3)c2O)cc1` [Example 134, N-(5′-fluoro-2′-hydroxy-3′-(1-(1-methylpiperidin-4-yl)-1H-pyrazol-4-yl)-[1,1′-biphenyl]-4-yl)acetamide], the IC50 is above 100 nM.
As for `CC(=O)Nc1ccc(-c2cccc(-c3cc(N4CCNCC4)no3)c2O)cc1OC1CCC1` [Example 24, N-(3-cyclobutoxy-2′-hydroxy-3′-(3-(piperazin-1-yl)isoxazol-5-yl)-[1,1′-biphenyl]-4-yl)acetamide 2,2,2-trifluoroacetate], the 50% inhibitory concentration (IC50) lay in the range of 10 to 100 nM.
The value for `CC(=O)Nc1ccc(-c2cccc(-c3cccc(N4CC5CCC4CN5)c3)c2O)cc1F` (centres unmarked) [Example 174, N-(3″-(2,5-diazabicyclo[2.2.2]octan-2-yl)-3-fluoro-2′-hydroxy-[1,1′:3′,1″-terphenyl]-4-yl)acetamide] was 10 to 100 nM; that for `CC(=O)Nc1ccc(-c2cccc(-c3ccc(NC(C)=O)c(N4CCNCC4)c3)c2O)cc1N1CCNCC1` [Example 185, N,N′-(2′-hydroxy-3,3″-di(piperazin-1-yl)-[1,1′:3′,1″-terphenyl]-4,4″-diyl)diacetamide] was above 100 nM.
The result for `COc1cc(-c2cccc(-c3cc(N4CCNCC4)no3)c2O)ccc1NC(C)=O` [Example 23, N-(2′-Hydroxy-3-methoxy-3′-(3-(piperazin-1-yl)isoxazol-5-yl)-[1,1′-biphenyl]-4-yl)acetamide 2,2,2-trifluoroacetate] reads above 100 nM; that for `CC(=O)Nc1ccc(-c2cccc(-c3cccc(C)c3)c2O)cc1F` [Example 55, N-(3-fluoro-2′-hydroxy-3″-methyl-[1,1′:3′,1″-terphenyl]-4-yl)acetamide], above 100 nM; that for `CC(=O)Nc1ccc(-c2cccc(-c3cccc(N4CCC(CN)C4)c3)c2O)cc1F` (centres unmarked) [Example 203, N-(3″-(3-(aminomethyl)pyrrolidin-1-yl)-3-fluoro-2′-hydroxy-[1,1′:3′,1″-terphenyl]-4-yl)acetamide], 1 to 10 nM.
As to `CC(=O)N1CCCc2cc(-c3cccc(-c4cc(N5CCNCC5)no4)c3O)ccc21` [Example 36, 1-(6-(2-Hydroxy-3-(3-(piperazin-1-yl)isoxazol-5-yl)phenyl)-3,4-dihydroquinolin-1(2H)-yl)ethanone 2,2,2-trifluoroacetate], the IC50 is above 100 nM.
The result for `CC(=O)Nc1ccc(-c2cccc(-c3cccc(N4CCC5(CCNC5)C4)c3)c2O)cc1F` (centres unmarked) [Example 221, N-(3-fluoro-2′-hydroxy-3″-(2,7-diazaspiro[4.4]nonan-2-yl)-[1,1′:3′,1″-terphenyl]-4-yl)acetamide] reads 1 to 10 nM.
The result for `CC(=O)Nc1ccc(-c2cccc(-c3cccc(OC(C)C)c3)c2O)cc1F` [Example 107, N-(3-Fluoro-2′-hydroxy-3″-isopropoxy-[1,1′:3′,1″-terphenyl]-4-yl)acetamide] reads above 100 nM.
As to `CN1CCN(c2ccc(-c3cccc(-c4cc(N5CCNCC5)no4)c3O)cc2)C1=O` [Example 65, 1-(2′-Hydroxy-3′-(3-(piperazin-1-yl)isoxazol-5-yl)-[1,1′-biphenyl]-4-yl)-3-methylimidazolidin-2-one 2,2,2-trifluoroacetate], the IC50 lay in the range of 10 to 100 nM.
The value for `CC(=O)Nc1ccc(-c2cccc(-c3cnc(-c4ccccc4)o3)c2O)cc1F` [Example 85, N-(3-Fluoro-2′-hydroxy-3′-(2-phenyloxazol-5-yl)-[1,1′-biphenyl]-4-yl)acetamide] was above 100 nM; that for `COc1ccc(-c2cccc(-c3ccc(NC(C)=O)c(F)c3)c2O)cc1` [Example 61, N-(3-Fluoro-2′-hydroxy-4″-methoxy-[1,1′:3′,1″-terphenyl]-4-yl)acetamide] was above 100 nM.
The result for `CC(=O)Nc1ccc(-c2cccc(-c3cc(N4CCNCC4)nc(N4CCNCC4)c3)c2O)cc1F` [Example 218, N-(3′-(2,6-di(piperazin-1-yl)pyridin-4-yl)-3-fluoro-2′-hydroxy-[1,1′-biphenyl]-4-yl)acetamide] reads 1 to 10 nM; that for `CCNC(=O)c1cccc(-c2cccc(-c3ccc(NC(C)=O)c(F)c3)c2O)c1` [Example 93, 4″-Acetamido-N-ethyl-3″-fluoro-2′-hydroxy-[1,1′:3′,1″-terphenyl]-3-carboxamide], above 100 nM; that for `CC(=O)Nc1ccc(-c2cccc(-c3cc(N4CCNCC4)no3)c2O)cc1Cl` [Example 32, N-(3-Chloro-2′-hydroxy-3′-(3-(piperazin-1-yl)isoxazol-5-yl)-[1,1'-biphenyl]-4-yl)acetamide 2,2,2-trifluoroacetate], 10 to 100 nM.
The value for `CC(=O)Nc1ccc(-c2cccc(-c3cc(N4CCNCC4)no3)c2O)cc1OC1CC1` [Example 44, N-(3-Cyclopropoxy-2′-hydroxy-3′-(3-(piperazin-1-yl)isoxazol-5-yl)-[1,1′-biphenyl]-4-yl)acetamide 2,2,2-trifluoroacetate] was 10 to 100 nM; that for `CC(=O)Nc1ccc(-c2cccc(-c3cnn(-c4ccc(F)cc4)c3)c2O)cc1` [Example 16, N-(3′-(1-(4-Fluorophenyl)-1H-pyrazol-4-yl)-2′-hydroxy-[1,1′-biphenyl]-4-yl)acetamide] was above 100 nM; that for `COc1cc(-c2cccc(-c3cc(Cl)c(N4CCCC4=O)c(Cl)c3)c2O)ccc1NC(C)=O` [Example 165, N-(3″,5″-dichloro-2′-hydroxy-3-methoxy-4″-(2-oxopyrrolidin-1-yl)-[1,1′:3′,1″-terphenyl]-4-yl)acetamide] was above 100 nM.
For `CC(=O)Nc1ccc(-c2cccc(-c3cc(N4CCNCC4)ccc3C)c2O)cc1F` [Example 181, N-(3-fluoro-2′-hydroxy-2″-methyl-5″-(piperazin-1-yl)-[1,1′:3′,1″-terphenyl]-4-yl)acetamide], the IC50 is above 100 nM.
Regarding `CC(=O)Nc1ccc(-c2cccc(-c3ccc(Oc4ccccc4)cc3)c2O)cc1F` [Example 90, N-(3-Fluoro-2′-hydroxy-4″-phenoxy-[1,1′:3′,1″-terphenyl]-4-yl)acetamide], the IC50 was above 100 nM.
On to `CCOC(=O)c1cccc(-c2cccc(-c3ccc(NC(C)=O)c(F)c3)c2O)c1` [Example 70, Ethyl 4″-acetamido-3″-fluoro-2′-hydroxy-[1,1′:3′,1″-terphenyl]-3-carboxylate], for which the IC50 was above 100 nM.
Regarding `O=C1CCCN1c1ccc(-c2cc(F)cc(-c3ccnc(N4CCNCC4)c3)c2O)cc1F` [Example 216, 1-(3,5′-Difluoro-2′-hydroxy-3′-(2-(piperazin-1-yl)pyridin-4-yl)-[1,1′-biphenyl]-4-yl)pyrrolidin-2-one], the concentration for half-maximal inhibition (IC50) was 1 to 10 nM.
The value for `CC(=O)Nc1ccc(-c2cccc(-c3cccc(Oc4ccccc4)c3)c2O)cc1F` [Example 91, N-(3-Fluoro-2′-hydroxy-3″-phenoxy-[1,1′:3′,1″-terphenyl]-4-yl)acetamide] was above 100 nM; that for `CC(=O)Nc1ccc(-c2cccc(-c3cc(N4CCNCC4)sn3)c2O)cc1` [Example 8, N-(2′-Hydroxy-3′-(5-(piperazin-1-yl)isothiazol-3-yl)-[1,1′-biphenyl]-4-yl)acetamide] was above 100 nM; that for `CC(=O)Nc1ccc(-c2cccc(-c3cc(N4CCNCC4)no3)c2O)cc1Oc1ccccc1` [Example 68, N-(2′-Hydroxy-3-phenoxy-3′-(3-(piperazin-1-yl)isoxazol-5-yl)-[1,1′-biphenyl]-4-yl)acetamide 2,2,2-trifluoroacetate] was 10 to 100 nM.
For the molecule `COc1cccc(-c2cccc(-c3ccc(NC(C)=O)c(F)c3)c2O)c1` [Example 56, N-(3-fluoro-2′-hydroxy-3″-methoxy-[1,1′:3′,1″-terphenyl]-4-yl)acetamide], the IC50 is above 100 nM.
`CCN1CCN(c2cc(-c3cccc(-c4ccc(NC(C)=O)c(F)c4)c3O)on2)CC1` [Example 151, N-(3′-(3-(4-ethylpiperazin-1-yl)isoxazol-5-yl)-3-fluoro-2′-hydroxy-[1,1′-biphenyl]-4-yl)acetamide]: the half-maximal inhibitory concentration (IC50) lay in the range of 10 to 100 nM.
For `CC(=O)Nc1ccc(-c2cccc(-c3cc(N4CCNCC4)no3)c2O)cc1C#N` [Example 64, N-(3-Cyano-2′-hydroxy-3′-(3-(piperazin-1-yl)isoxazol-5-yl)-[1,1′-biphenyl]-4-yl)acetamide 2,2,2-trifluoroacetate], the IC50 was in the range of 10 to 100 nM.
The value for `CCOC(=O)c1ccc(-c2cccc(-c3ccc(NC(C)=O)c(F)c3)c2O)cc1` [Example 69, Ethyl 4″-acetamido-3″-fluoro-2′-hydroxy-[1,1′:3′,1″-terphenyl]-4-carboxylate] was above 100 nM; that for `CC(=O)Nc1ccc(-c2cccc(-c3cnn(C)c3)c2O)cc1` [Example 13, N-(2′-Hydroxy-3′-(1-methyl-1H-pyrazol-4-yl)-[1,1′-biphenyl]-4-yl)acetamide] was above 100 nM; that for `CC(=O)Nc1c(F)cc(-c2cccc(-c3cccc(N4CCNCC4)c3)c2O)cc1OC1CC1` [Example 175, N-(3-cyclopropoxy-5-fluoro-2′-hydroxy-3″-(piperazin-1-yl)-[1,1′:3′,1″-terphenyl]-4-yl)acetamide] was 10 to 100 nM.
The value for `O=C1NCCN1c1ccc(-c2cccc(-c3ccnc(N4CCNCC4)c3)c2O)cc1Cl` [Example 228, 1-(3-chloro-2′-hydroxy-3′-(2-(piperazin-1-yl)pyridin-4-yl)-[1,1′-biphenyl]-4-yl)imidazolidin-2-one] was 1 to 10 nM; that for `CC(=O)Nc1ccc(-c2cccc(-c3cc(N4CCNCC4)no3)c2O)cn1` [Example 76, N-(5-(2-Hydroxy-3-(3-(piperazin-1-yl)isoxazol-5-yl)phenyl)pyridin-2-yl)acetamide 2,2,2-trifluoroacetate] was above 100 nM.
